Assay results reported in patent US10660900B2 (priority 2014, dated 2020).
Several values for one entry are separate records, joined by “and”; a condition that tells them apart may be missing. Equal entries are not always repeated. Entries after “also recorded” stand apart in the source; their conditions may differ. Where two headings read alike, the source gives them in different places.

Columns and labels:
[1] = Cold pressor test in healthy volunteers; format: in vivo, human; settings: 3-60 mg single oral doses versus placebo; hand immersion duration and VAS pain score
Experimental: Analgesic effect was assessed based on duration of hand immersion in ice water and on visual analog scale (VAS) pain scores upon hand removal from the water bath.
(§1) Safety and tolerability of noribogaine were tested in the group of volunteers from Example 1. Cold pressor testing was conducted in 1° C. water according to the method of Mitchell et al. (J Pain 5:233-237, 2004) pre-dose, 6, 24, 48, 72 and 216 hours post-dosing. Safety evaluations included clinical monitoring, recording of adverse events (AEs), safety laboratory tests, vital signs, ECG telemetry from −2 h to 6 h after dosing, and 12-lead electrocardiograms (ECGs) up to 216 hours post-dosing.

[2] = Safety and tolerability in healthy volunteers (adverse events, ECG, vital signs, oximetry); format: in vivo, human
Experimental: Pulse oximetry and capnography data were collected continuously using a GE Carescape B650 monitoring system from 2 hours prior to dosing and until six hours after dosing, and thereafter at 12, 24, 48 and 72 hours post-dosing. Additional oximetry data were collected at 120, 168 and 216 hours. Pupillary miosis was assessed by pupillometry. Dark-adapted pupil diameter was measured in triplicate using a Neuroptics PLR-200 pupillometer under standardized light intensity (<5 lux) pre-dose, and at 2, 4, 6, 12, 24, 48, 72, 96, 120, 168 and 216 hours post-dosing.
as §1

[3] = Time to resumption of opioid substitution treatment and withdrawal scales (COWS, SOWS, OOWS); format: in vivo, human
calf OPRM = calf OPRM (Bos taurus, UniProt P79350); settings: cited from earlier work; for Ki: read-out: Ki
calf OPRM, sequence (P79350 whole entry): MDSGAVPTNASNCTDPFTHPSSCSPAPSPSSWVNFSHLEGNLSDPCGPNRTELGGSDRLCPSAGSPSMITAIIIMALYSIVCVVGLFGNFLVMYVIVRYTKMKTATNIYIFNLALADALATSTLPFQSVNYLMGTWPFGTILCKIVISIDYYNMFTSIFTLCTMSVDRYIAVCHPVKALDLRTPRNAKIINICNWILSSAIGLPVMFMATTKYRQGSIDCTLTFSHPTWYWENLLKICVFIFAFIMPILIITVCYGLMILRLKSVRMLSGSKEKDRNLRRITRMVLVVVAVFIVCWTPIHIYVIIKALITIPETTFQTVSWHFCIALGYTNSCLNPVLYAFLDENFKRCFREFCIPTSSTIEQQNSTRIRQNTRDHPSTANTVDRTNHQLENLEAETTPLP

calf OPRK = calf OPRK (Bos taurus, UniProt Q2KIP6); settings: cited from earlier work
calf OPRK, sequence (Q2KIP6 whole entry): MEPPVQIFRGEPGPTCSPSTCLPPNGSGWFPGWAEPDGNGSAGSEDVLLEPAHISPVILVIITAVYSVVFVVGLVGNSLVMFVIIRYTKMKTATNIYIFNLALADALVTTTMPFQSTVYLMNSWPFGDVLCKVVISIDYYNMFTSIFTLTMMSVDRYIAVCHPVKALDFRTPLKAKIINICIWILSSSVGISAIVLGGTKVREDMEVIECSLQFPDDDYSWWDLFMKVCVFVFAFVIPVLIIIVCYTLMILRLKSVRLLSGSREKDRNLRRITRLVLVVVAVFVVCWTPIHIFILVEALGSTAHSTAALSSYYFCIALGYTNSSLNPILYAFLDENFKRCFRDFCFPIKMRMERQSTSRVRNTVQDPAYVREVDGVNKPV

[4] = test system: human opioid receptor delta (OPRD); settings: Pearl, Herrick-Davis et al. 1995; cited from earlier work
[5] = biological target: opioid receptor delta (OPRD) (Bos taurus, UniProt F1N083); settings: printed in the SEM column; literature; cited from earlier work
opioid receptor delta (OPRD), sequence (F1N083 1-372): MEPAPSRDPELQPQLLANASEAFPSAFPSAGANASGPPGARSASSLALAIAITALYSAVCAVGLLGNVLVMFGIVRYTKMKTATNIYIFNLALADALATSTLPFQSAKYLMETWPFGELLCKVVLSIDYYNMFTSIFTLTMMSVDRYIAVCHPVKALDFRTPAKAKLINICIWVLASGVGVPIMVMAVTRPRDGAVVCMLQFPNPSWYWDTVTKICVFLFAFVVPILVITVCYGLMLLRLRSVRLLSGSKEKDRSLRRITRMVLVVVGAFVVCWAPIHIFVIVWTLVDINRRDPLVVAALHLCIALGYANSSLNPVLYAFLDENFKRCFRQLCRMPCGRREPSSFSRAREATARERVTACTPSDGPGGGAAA

[6] = rats; centrally mediated; Baumann, Rothman et al. 2001; cited from earlier work
OPRK = OPRK (Homo sapiens, UniProt P41145); assay: cell-based; set-up: host or cells: CHO-K1
OPRK, sequence (P41145 whole entry): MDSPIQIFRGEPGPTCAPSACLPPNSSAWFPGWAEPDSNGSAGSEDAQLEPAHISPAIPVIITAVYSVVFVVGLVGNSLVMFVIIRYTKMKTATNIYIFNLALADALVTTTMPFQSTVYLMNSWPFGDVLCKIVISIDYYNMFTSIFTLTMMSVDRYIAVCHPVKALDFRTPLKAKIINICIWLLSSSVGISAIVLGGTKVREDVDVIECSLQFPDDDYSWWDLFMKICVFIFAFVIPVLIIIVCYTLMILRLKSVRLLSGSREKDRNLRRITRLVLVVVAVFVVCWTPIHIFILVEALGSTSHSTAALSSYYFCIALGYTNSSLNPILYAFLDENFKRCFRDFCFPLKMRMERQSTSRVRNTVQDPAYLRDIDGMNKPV

[7] = Treatment emergent adverse events in opioid-dependent patients, single dose
human OPRM = human OPRM (Homo sapiens, UniProt P35372); assay: biochemical; set-up: expressed in transfected cells; host or cells: CHO-K1 (cell line provided by Dr. Toll, Torrey Pines Institute); membranes prepared in house
human OPRM, sequence (P35372 whole entry): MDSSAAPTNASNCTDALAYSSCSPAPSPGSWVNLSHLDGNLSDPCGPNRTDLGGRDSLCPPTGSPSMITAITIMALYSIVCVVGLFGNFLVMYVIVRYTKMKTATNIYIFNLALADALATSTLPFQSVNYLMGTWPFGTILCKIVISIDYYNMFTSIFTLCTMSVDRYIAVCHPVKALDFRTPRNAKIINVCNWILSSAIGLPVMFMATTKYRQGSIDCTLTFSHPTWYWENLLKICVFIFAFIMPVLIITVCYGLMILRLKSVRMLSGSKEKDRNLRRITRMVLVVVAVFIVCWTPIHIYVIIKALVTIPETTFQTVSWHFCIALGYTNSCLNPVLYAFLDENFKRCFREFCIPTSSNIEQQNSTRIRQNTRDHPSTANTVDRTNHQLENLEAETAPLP

For `CC[C@H]1CC2C[C@H]3c4[nH]c5ccc(O)cc5c4CCN(C2)C13` [Noribogaine, noribogaine], which “analgesic effect in the cold pressor test” value [1] is on record?
The value was “no analgesic effect”.

What about the “number of adverse events reported” value ([2]; 3 mg dose group, two subjects) of the same molecule?
Its value is “five”.

What about the “adverse events, Mild” value ([2]; 3 mg noribogaine) of the same molecule?
The value was “Back pain; also recorded: Dizziness; also recorded: Epistaxis; also recorded: Headache”.

What about the “adverse events, Moderate” value ([2]; 3 mg noribogaine) of the same molecule?
The value was “Headache”.

And the “number of adverse events reported” value ([2]; 10 mg dose group, single subject)?
The value was “one”.

What about the “adverse events, Mild” value ([2]; 10 mg noribogaine) of the same molecule?
The value was “Headache”.

And the “number of adverse events reported” value ([2]; 30 mg dose group, single subject)?
The value was “one”.

And the “adverse events, Mild” value ([2]; 30 mg noribogaine)?
The value was “Headache”.

And the “oximetry, capnography, respiratory rate” value ([2]; 3-60 mg single oral doses)?
The value was “no changes in oximetry or capnography, or changes in respiratory rate”.

And the “vital signs and safety laboratory tests” value ([2]; 3-60 mg single oral doses)?
The value was “no changes in vital signs or safety laboratory tests of note”.

What about the “QTcF values above 500 msec” value ([2]; all dose groups, any time) of the same molecule?
Its value is “no QTcF values >500 msec”.

And the “single increase in QTcF” value ([2]; one subject, 10 mg noribogaine, 24 hours post-dosing)?
Its value is greater than 60 ms.

What about the “withdrawal symptoms (COWS, OOWS, SOWS), first six hours after dosing” value ([3]; 120 mg noribogaine) of the same molecule?
Its value is “fewer withdrawal symptoms than the other patients”.

What about the “average time to resumption of opioids (OST)” value ([3]; single 120 mg dose) of the same molecule?
The value was “greater than 20 hours”.

And the Ki (calf OPRM; calf OPRM)?
Its Ki is 1520 nM.

What about the pKi (calf OPRM; calf receptor, literature) of the same molecule?
Its pKi is 5.6.

And the Ki (calf OPRM; calf receptor, literature)?
Its Ki is 2660 nM.

What about the Ki (calf OPRK; calf OPRK) of the same molecule?
The Ki was 960 nM.

What about the pKi (calf OPRK; calf receptor, literature) of the same molecule?
Its pKi is 6.0.

And the “less affine at OPRD than at OPRK” value [4]?
Its value is roughly 30 ×.

And the Ki [5]?
The Ki was 24.7 µM.

And the release of prolactin [6]?
The release of prolactin was “triggered the release of prolactin”.

And the EC50 (OPRK)?
Its EC50 is 265 nM.

And the “e-coupling (pKi-pEC50)” value (OPRK; Activation)?
Its value is −0.43.

What about the “e-coupling, Beta-Arrestin2 Pathway” value (OPRK; Activation) of the same molecule?
The value was −0.43.

And the “e-signal, Beta-Arrestin2 Pathway” value (OPRK; Activation)?
Its value is 0.13.

And the pEC50 (OPRK; Activation)?
The pEC50 was 6.6.

What about the Emax (OPRK; CHO-K1, read-out: Efficacy (Emax)) of the same molecule?
Its Emax is 12.6 ± 3%.

And the “inhibition of agonist response” value (OPRK; Dynorphin A at EC80)?
The value was roughly 60%.

What about the “e-coupling, Beta-Arrestin2 Pathway” value (OPRK; Inhibition) of the same molecule?
The value was −0.44.

And the “e-signal, Beta-Arrestin2 Pathway” value (OPRK; Inhibition)?
The value was 0.60.

What about the “e-coupling (pKi-pKe)” value (OPRK; inhibitory component) of the same molecule?
Its value is −0.44.

What about the “Efficacy (inhibition)” value (OPRK; inhibitory component against Dynorphin A) of the same molecule?
Its value is −60~ %.

What about the “Catheter Site Infection” value ([7]; 60 mg noribogaine (N = 6)) of the same molecule?
The value was 0.

What about the “Catheter Site Pain” value ([7]; 60 mg noribogaine (N = 6)) of the same molecule?
Its value is 0.

And the “Catheter Site Related Reaction” value ([7]; 60 mg noribogaine (N = 6))?
Its value is 0.

And the Cellulitis ([7]; 60 mg noribogaine (N = 6))?
Its Cellulitis is 0.

What about the Diarrhoea ([7]; 60 mg noribogaine (N = 6)) of the same molecule?
Its Diarrhoea is 0.

And the “Diy Mouth” value ([7]; 60 mg noribogaine (N = 6))?
Its value is 0.

And the “Ear and Labyrinth Disorders” value ([7]; 60 mg noribogaine (N = 6))?
The value was 0.

What about the Epistaxis ([7]; 60 mg noribogaine (N = 6)) of the same molecule?
Its Epistaxis is 0.

What about the “Euphoric Mood” value ([7]; 60 mg noribogaine (N = 6)) of the same molecule?
The value was 0.

And the “General Disorders and Administration Site Conditions” value ([7]; 60 mg noribogaine (N = 6))?
Its value is 0.

What about the Hyperaesthesia ([7]; 60 mg noribogaine (N = 6)) of the same molecule?
The Hyperaesthesia was 0.

And the “Infections and Infestations” value ([7]; 60 mg noribogaine (N = 6))?
Its value is 0.

And the “Limb Discomfort” value ([7]; 60 mg noribogaine (N = 6))?
Its value is 0.

What about the Malaise ([7]; 60 mg noribogaine (N = 6)) of the same molecule?
Its Malaise is 0.

What about the Nausea ([7]; 60 mg noribogaine (N = 6)) of the same molecule?
The Nausea was 0.

And the “Oropharyngeal Pain” value ([7]; 60 mg noribogaine (N = 6))?
The value was 0.

What about the Pseudoparalysis ([7]; 60 mg noribogaine (N = 6)) of the same molecule?
The Pseudoparalysis was 0.

What about the “Respiratory, Thoracic and Mediastinal Disorders” value ([7]; 60 mg noribogaine (N = 6)) of the same molecule?
Its value is 0.

What about the Rhinorrhoea ([7]; 60 mg noribogaine (N = 6)) of the same molecule?
Its Rhinorrhoea is 0.

And the “Skin Discomfort” value ([7]; 60 mg noribogaine (N = 6))?
The value was 0.

And the “Skin Irritation” value ([7]; 60 mg noribogaine (N = 6))?
The value was 0.

What about the “Skin and Subcutaneous Tissue Disorders” value ([7]; 60 mg noribogaine (N = 6)) of the same molecule?
Its value is 0.

What about the Somnoience ([7]; 60 mg noribogaine (N = 6)) of the same molecule?
Its Somnoience is 0.

What about the Tinnitus ([7]; 60 mg noribogaine (N = 6)) of the same molecule?
Its Tinnitus is 0.

And the Tremor ([7]; 60 mg noribogaine (N = 6))?
Its Tremor is 0.

And the “Urinary Tract Infection” value ([7]; 60 mg noribogaine (N = 6))?
The value was 0.

And the Vomiting ([7]; 60 mg noribogaine (N = 6))?
The Vomiting was 0.

And the “Back Pain” value ([7]; 120 mg noribogaine (N = 6))?
The value was 0.

What about the “Catheter Site Infection” value ([7]; 120 mg noribogaine (N = 6)) of the same molecule?
Its value is 0.

What about the “Catheter Site Related Reaction” value ([7]; 120 mg noribogaine (N = 6)) of the same molecule?
The value was 0.

What about the “Depressed Mood” value ([7]; 120 mg noribogaine (N = 6)) of the same molecule?
The value was 0.

What about the “Dry Eye” value ([7]; 120 mg noribogaine (N = 6)) of the same molecule?
The value was 0.

What about the Dyspepsia ([7]; 120 mg noribogaine (N = 6)) of the same molecule?
The Dyspepsia was 0.

What about the “Euphoric Mood” value ([7]; 120 mg noribogaine (N = 6)) of the same molecule?
Its value is 0.

What about the “Limb Discomfort” value ([7]; 120 mg noribogaine (N = 6)) of the same molecule?
The value was 0.

What about the Malaise ([7]; 120 mg noribogaine (N = 6)) of the same molecule?
Its Malaise is 0.

What about the “Musculoskeletal and Connective Tissue Disorders” value ([7]; 120 mg noribogaine (N = 6)) of the same molecule?
Its value is 0.

And the “Psychiatric Disorders” value ([7]; 120 mg noribogaine (N = 6))?
The value was 0.

What about the Somnoience ([7]; 120 mg noribogaine (N = 6)) of the same molecule?
The Somnoience was 0.

And the “Urinary Tract Infection” value ([7]; 120 mg noribogaine (N = 6))?
The value was 0.

What about the “Catheter Site Infection” value ([7]; 180 mg noribogaine (N = 6)) of the same molecule?
The value was 0.

And the “Catheter Site Pain” value ([7]; 180 mg noribogaine (N = 6))?
Its value is 0.

And the “Depressed Mood” value ([7]; 180 mg noribogaine (N = 6))?
Its value is 0.

And the Diarrhoea ([7]; 180 mg noribogaine (N = 6))?
The Diarrhoea was 0.

And the “Dry Eye” value ([7]; 180 mg noribogaine (N = 6))?
The value was 0.

And the Dyspepsia ([7]; 180 mg noribogaine (N = 6))?
The Dyspepsia was 0.

And the “Ear and Labyrinth Disorders” value ([7]; 180 mg noribogaine (N = 6))?
The value was 0.

What about the Epistaxis ([7]; 180 mg noribogaine (N = 6)) of the same molecule?
The Epistaxis was 0.

What about the “Euphoric Mood” value ([7]; 180 mg noribogaine (N = 6)) of the same molecule?
Its value is 0.

What about the Hyperaesthesia ([7]; 180 mg noribogaine (N = 6)) of the same molecule?
The Hyperaesthesia was 0.

And the Malaise ([7]; 180 mg noribogaine (N = 6))?
Its Malaise is 0.

And the “Oropharyngeal Pain” value ([7]; 180 mg noribogaine (N = 6))?
The value was 0.

What about the Pseudoparalysis ([7]; 180 mg noribogaine (N = 6)) of the same molecule?
The Pseudoparalysis was 0.

And the “Psychiatric Disorders” value ([7]; 180 mg noribogaine (N = 6))?
The value was 0.

And the “Respiratory, Thoracic and Mediastinal Disorders” value ([7]; 180 mg noribogaine (N = 6))?
Its value is 0.

And the Rhinorrhoea ([7]; 180 mg noribogaine (N = 6))?
The Rhinorrhoea was 0.

And the “Skin Discomfort” value ([7]; 180 mg noribogaine (N = 6))?
The value was 0.

What about the “Skin Irritation” value ([7]; 180 mg noribogaine (N = 6)) of the same molecule?
The value was 0.

And the “Skin and Subcutaneous Tissue Disorders” value ([7]; 180 mg noribogaine (N = 6))?
The value was 0.

What about the Somnoience ([7]; 180 mg noribogaine (N = 6)) of the same molecule?
Its Somnoience is 0.

What about the Tinnitus ([7]; 180 mg noribogaine (N = 6)) of the same molecule?
Its Tinnitus is 0.

And the Tremor ([7]; 180 mg noribogaine (N = 6))?
The Tremor was 0.

And the hallucinatory effects ([7]; 60, 120 or 180 mg single dose)?
The hallucinatory effects was “no hallucinatory effects”.

What about the “Efficacy (Emax)” value (human OPRM) of the same molecule?
The value was 9.4%.

What about the “Efficacy (inhibition)” value (human OPRM) of the same molecule?
The value was −100~ %.

And the “e-coupling (pKi-pEC50)” value (human OPRM)?
The value was 1.02.

What about the “e-coupling (pKi-pKe)” value (human OPRM) of the same molecule?
Its value is 1.10.

What about the pEC50 (human OPRM) of the same molecule?
Its pEC50 is 4.8.

And the “right-shift of EC50 of DAMGO and morphine” value (human OPRM)?
The value was roughly 1 log.

And the Ki (human OPRM; Ke)?
Its Ki is 19 µM and 28 µM.

And the Emax (human OPRM; read-out: Efficacy (Emax))?
Its Emax is 10%.
